From paper PMC11407620, “Repurposing auranofin and meclofenamic acid as energy-metabolism inhibitors and anti-cancer drugs” (PLOS ONE, 2024)
Read-outs that look alike come from different tables or passages of the source.

Experiments:
HeLa cells = tested on: HeLa cells; design: method as in PMID 33333716; settings: CP alone at doses of Table 5; cited from earlier work
Breast MDA-MB-231 cells = assay: Cell proliferation, 24 h drug exposure; assay type: cell-based, human; settings: Breast MDA-MB-231, 24 h, read-out: IC50 for proliferation cell rate
Protocol: (§1) All metastatic (breast MDA-MB231, MDA-MB468, cervix HeLa, prostate PC3, colorectal HCT116, COLO205, glioblastoma U373), low-metastatic (breast MCF-7) cancer and non-cancer (fibroblast 3T3, cardiomyocytes H9C2) cell lines (American Type Culture Collection, Rockville, MD, USA) used in this study were cultured in Petri dishes in 20 mL of Dulbecco’s Modified Eagle’s Medium (DMEM, Sigma, MO, USA) supplemented with 10% fetal bovine serum (Biowest, Mexico) and 10,000 U penicillin/streptomycin (Sigma-Aldrich, MO, USA). […] For growth and maintenance, cells were incubated in 5% CO2/95% air at 37°C and kept until 80–90% of confluence was reached. Then, cells were harvested, washed by centrifugation and resuspended in Krebs-Ringer buffer (KR, 125 mM NaCl, 5 mM KCl, 25 mM Hepes, 1 mM MgCl2, 1 mM KH2PO4, 1.4 mM CaCl2, pH 7.4) for further use. For experimentation, cancer cells (3–5 x 10^6 cells) were cultured in DMEM (with 25 mM glucose) for 24 h in the absence of drugs. Afterwards, old-medium was replaced with fresh DMEM medium (with 25 mM glucose) in the absence (control, non-treated cells) or in the presence of logarithmic concentrations of Aur and MA for 24 h more, under the same culture conditions described above. Viability of cultured cells was determined by the trypan blue exclusion assay. The protein concentration was determined by the Lowry method.
(§2) For cell proliferation in the presence of drugs, cancer cells (20 x 10^3 cells/well) were grown in 96-well plates containing DMEM (Sigma-Aldrich) plus 10% bovine fetal serum for 24 h. Afterwards, Aur or MA (0.01, 0.1, 10 and 100 μM) were added to the cell cultures and incubated for additional 24 h. The effect of these drugs on cell proliferation was determined in 96-well plates by the MTT (3-[4,5-dimethyl-thiazol-2-yl]-2,5-diphenyltetrazolium bromide) assay. The viability of cancer cells was > 95% after treatment with drugs.

Cervix HeLa cells = assay: Cell proliferation, 24 h drug exposure; assay type: cell-based, human; settings: Cervix HeLa, 24 h, read-out: IC50 for proliferation cell rate
Protocol: as §1
as §2, with “Afterwards, Aur or MA (0.01, 0.1, 10 and 100 μM) were added to the cell cultures and incubated for additional 24 h.” left out

Glioblastoma U373 cells = assay: Cell proliferation, 24 h drug exposure; assay type: cell-based, human; settings: Glioblastoma U373, 24 h, read-out: IC50 for proliferation cell rate
Protocol: as §1
as §2, with “Afterwards, Aur or MA (0.01, 0.1, 10 and 100 μM) were added to the cell cultures and incubated for additional 24 h.” left out

[1] = tested on: MDA-MB-231 and MDA-MB-468 cells; assay: Cell migration, wound healing assay; assay type: cell-based; settings: Homo sapiens; 15 μM perhexiline
Protocol: The wound healing assay was performed for cell migration detection. In petri dishes with full DMEM, cancer cells (5 x 10^6 cells/well) were cultured at 37°C under 95% air and 5% CO2 until 80–90% confluence was attained. Afterwards, cell culture was wounded with a 1 mL pipette tip, washed twice with PBS (155 mM NaCl, 1.5 mM KH2PO4, 2.7 mM NaH2PO4, pH 7.2) and subsequently incubated at 37°C with fresh non-serum DMEM. Cellular migration images were taken in an inverted microscope (Zeiss, Thornwood, NY, USA) after 0 and 24 h incubation time. Using a graduated reticule (Zeiss, Thornwood, NY, USA), cellular migration was assessed from the petri dish’s border to its center distance travelled.
S2 Figure. Migratory capacity in metastatic triple negative breast cancer cells exposed to perhexiline. n=3; *P < 0.05 vs. Control (Non-treated cells)

Colorectal HCT116 cells = assay: Cell proliferation, 24 h drug exposure; assay type: cell-based, human; settings: Homo sapiens, HCT-116; Colorectal HCT116; 24 h; read-out: IC50 for proliferation cell rate
Protocol: as §1, §2

Colorectal COLO205 cells = assay: Cell proliferation, 24 h drug exposure; assay type: cell-based, human; settings: Homo sapiens, COLO 205; Colorectal COLO205; 24 h; read-out: IC50 for proliferation cell rate
Protocol: as §1, §2

Breast MCF-7 cells = assay: Cell proliferation, 24 h drug exposure; assay type: cell-based, human; settings: Homo sapiens, MCF7; Breast MCF-7 (low metastatic); 24 h; read-out: IC50 for proliferation cell rate
Protocol: as §1, §2

Breast MDA-MB-468 cells = assay: Cell proliferation, 24 h drug exposure; assay type: cell-based, human; settings: Homo sapiens; Breast MDA-MB-468; 24 h; read-out: IC50 for proliferation cell rate
Protocol: as §1, §2

3T3 mouse fibroblasts = assay: Cell proliferation, 24 h drug exposure (non cancer cells); assay type: cell-based; settings: Fibroblast, 3T3 mouse fibroblasts (non cancer), read-out: IC50 for proliferation cell rate
Protocol: as §1, §2

[2] = tested on: H9C2 mouse cardiomyocytes; assay: as above; assay type: cell-based; settings: read-out: IC50 for proliferation cell rate
Protocol: as §1, §2

[3] = tested on: HeLa, U373, HCT116, MDA-MB-231 and MDA-MB-468 cells; assay: Cell invasiveness, Boyden chamber; assay type: cell-based, human; settings: perhexiline 4–20 μM; 24 h
Protocol: The 96-multiwell Boyden chambers (Merck Millipore, MA, USA) assay was performed for cellular invasiveness detection. Cancer cells (5 × 10^4 cells/well) were re-suspended in free-serum DMEM and placed in the upper Boyden chamber compartment. Free-serum DMEM was also placed in the lower compartment of the chamber. Afterwards, the Boyden chamber was placed at 37°C and 95% air/5% CO2 for 24 h. Invasive cancer cells within the lower chamber compartment were detected by using the calcein-AM (60 nM, 1 h) assay at 37°C. Calcein-fluorescence was measured at λexcitation = 485 nm and λemission = 520 nm in a Nunclon microplate reader (Roskilde, Denmark).
S1 Figure. Cancer invasiveness assay in metastatic cancer cells exposed to MA (A) and perhexiline (B) for 24 h. All cancer cell invasiveness was compared with MDA-MB-231 cells, which are cancer cells with the highest invasiveness ability. n=3; *P < 0.05 vs. MDA-MB-231 non-treated cells.

non-cancer cells = assay: Non-cancer cell proliferation, pooled; assay type: cell-based; settings: Mus musculus, 24 h, read-out: IC50 values for non-cancer cells (range)
Protocol: as §1, with “For experimentation, cancer cells (3–5 x 10^6 cells) were cultured in DMEM (with 25 mM glucose) for 24 h in the absence of drugs. Afterwards, old-medium was replaced with fresh DMEM medium (with 25 mM glucose) in the absence (control, non-treated cells) or in the presence of logarithmic concentrations of Aur and MA for 24 h more, under the same culture conditions described above.” left out
For cell proliferation in the presence of drugs, cancer cells (20 x 10^3 cells/well) were grown in 96-well plates containing DMEM (Sigma-Aldrich) plus 10% bovine fetal serum for 24 h. […] The effect of these drugs on cell proliferation was determined in 96-well plates by the MTT (3-[4,5-dimethyl-thiazol-2-yl]-2,5-diphenyltetrazolium bromide) assay. […]

cancer cell lines = assay: Cancer cell proliferation, pooled over the cell lines of Table 1; assay type: cell-based, human; settings: for IC50: Homo sapiens, cancer cells, 24 h, read-out: IC50 values on cancer cell proliferation (range over cell lines)
Protocol: as §1
For cell proliferation in the presence of drugs, cancer cells (20 x 10^3 cells/well) were grown in 96-well plates containing DMEM (Sigma-Aldrich) plus 10% bovine fetal serum for 24 h. […] The effect of these drugs on cell proliferation was determined in 96-well plates by the MTT (3-[4,5-dimethyl-thiazol-2-yl]-2,5-diphenyltetrazolium bromide) assay. The viability of cancer cells was > 95% after treatment with drugs.

[4] = tested on: HeLa, MDA MB-231, and A548 (lung cancer) cells; assay: Oxygen consumption of cancer cells; assay type: cell-based; settings: Homo sapiens, MDA MB-231, A548 cells
Protocol: For oxidative phosphorylation (OxPhos) flux, cells (2–5 mg protein/mL) were incubated at 37°C in air saturated KR medium plus 5 mM glucose. To distinguish the oxygen consumption associated to OxPhos, the cells were incubated with 5 μM oligomycin (Sigma-Aldrich, MO, USA), a potent, specific, and permeable inhibitor of the mitochondrial ATP synthase. The net OxPhos rate was determined by using a Clark type electrode, as previously described and by using a high-resolution respirometer (Oroboros Instruments, Innsbruck, Austria) at 37°C. The contribution of OxPhos and glycolysis to the cellular ATP supply was determined, respectively, from the net OxPhos rate (oligomycin-sensitive respiration) multiplied by the ATP/O or P»/O2 ratio that corresponds to 2.5 or 5, and from the rate of lactate production, assuming a stoichiometry of 1 mol of ATP produced per 1 mol of lactate produced.

Prostate PC3 cells = assay: Cell proliferation, 24 h drug exposure; assay type: cell-based, human; settings: Homo sapiens, PC-3; Prostate PC3; 24 h; read-out: IC50 for proliferation cell rate
Protocol: as §1, §2

| IC50 (Colorectal HCT116 cells) [µM] | IC50 (Colorectal COLO205 cells) [µM] | IC50 (Breast MDA-MB-231 cells; Homo sapiens) [µM] | IC50 (Breast MCF-7 cells) [µM] | IC50 (Breast MDA-MB-468 cells) [µM] | IC50 (cancer cell lines) [µM] | IC50 (Cervix HeLa cells; Homo sapiens) [µM] | IC50 (Glioblastoma U373 cells; Homo sapiens, U373 MG) [µM] | IC50 (Prostate PC3 cells) [µM] | Compound | effect on proliferation rate, OxPhos, cellular invasiveness (HeLa cells) | IC50 (Breast MDA-MB-231 cells) [µM] | IC50 (Cervix HeLa cells) [µM] | IC50 (Glioblastoma U373 cells) [µM] | inhibition at 15 µM [1] [%] | IC50 (3T3 mouse fibroblasts) [µM] | IC50 [2] [µM] | inhibition of cell invasiveness [3] | IC50 (non-cancer cells) [µM] | inhibition at 10 µM [4] [%] | effect on cancer cell proliferation (cancer cell lines; up to 500 μM, 24 h incubation) |
| --- | --- | --- | --- | --- | --- | --- | --- | --- | --- | --- | --- | --- | --- | --- | --- | --- | --- | --- | --- | --- |
|  |  |  |  |  |  |  |  |  | N.N.[Cl][Pt][Cl] [CP, cisplatin] | no effect | 72 | > 1000 | > 1000 |  |  |  |  |  |  |  |
| 16 ± 7 | 16 ± 5 | 11 ± 0.6 | 20.5 ± 10 | 15 ± 0.8 | 4 to 20 | 4 ± 3 | 18.5 ± 2 |  | C1CCC(C(CC2CCCCN2)C2CCCCC2)CC1 (stereo not drawn) [Perhexiline] |  |  |  |  | 50 to 60 | 81.5 ± 8 | > 100 | 37–53% | 30 to 100 | 36 to 70 |  |
| 147 ± 58 |  | 111 ± 45 | 126 ± 65 |  | 31 to 147 | 31 ± 13 | 131 ± 41 | 31 ± 16 | CCC(C)(C)C(=O)O[C@H]1C[C@@H](C)C=C2C=C[C@H](C)[C@H](CC[C@@H]3C[C@@H](O)CC(=O)O3)[C@H]21 [Simvastatin] |  |  |  |  |  | 222 ± 60 | 100 ± 32 |  | 100 to 222 |  |  |
| > 500 |  | 463 | > 500 |  |  | > 500 | > 500 |  | CC1=C(CC(=O)O)c2cc(F)ccc2/C1=C\c1ccc([S+](C)[O-])cc1 (stereo not drawn) [Sulindac] |  |  |  |  |  | > 500 | > 500 |  |  |  | not significantly affected |
